The text below walks through data of patent US4021552A, “10-[ω-(BENZOYLPIPERIDINYL)ALKYL]PHENOTHIAZINES” (A. H. Robins Company, Incorporated, priority 1976, dated 1977).

For orientation: ED50 means the dose at which the effect has come halfway, by size or by number of responders. For orientation: LD50 means the dose expected to kill half of the subjects tested.

Data set [1] concerns d-amphetamine lethality in mice. Kind of data set: block of lethal effects of d-amphetamine in aggregated mice (modified procedure of Burn and Hobbs). It counts as in vivo. As to conditions: Mus musculus. The source says: Intern. Pharmacodyn. 113: 290 (1958).
Effects of different pretreatment time intervals
on d-amphetamine lethality in mice

A short description of data set [2]: acute toxicity (72 hour LD50) in mice. As to conditions: mouse, in vivo, IP, read-out: 72 hour LD50 (95% Confidence Limits).
Setting [3] is: IP, mice, 1 hr. pretreatment, read-out: Protective ED50 (95% confidence limits).
The mark [4] stands for this setting: IP, mice, 4 hrs. pretreatment, read-out: Protective ED50 (95% confidence limits).
The mark [5] stands for this setting: IP, mice, 8 hrs. pretreatment, read-out: Protective ED50 (95% confidence limits).
[6] abbreviates: IP, mice, 16 hrs. pretreatment, read-out: Protective ED50 (95% confidence limits).

Structures can show the parent of a compound that is named as a salt. Where two headings read alike, the source gives them in different places.

Take `O=C(c1ccc(F)cc1)C1CCN(CCCN2c3ccccc3Sc3ccccc32)CC1` [Example 1, 10-[3-(4-p-Fluorobenzoylpiperidinyl)propyl]phenothiazine Fumarate Hydrate (1:4)]: the 50% effective dose (ED50) in data set [1] (setting [3]) was found to be 0.94 mg/kg; in data set [1] (setting [4]) it was 0.35 mg/kg; in data set [1] (setting [5]) it was 1.27 mg/kg; in data set [1] (setting [6]) it was 12.1 mg/kg. The LD50 at 72 h in data set [2] is 330 mg/kg.
The like results for `O=C(c1ccc(F)cc1)C1CCN(CCCN2c3ccccc3Sc3ccc(C(F)(F)F)cc32)CC1` [Example 4, 2-Trifluoromethyl-10-[3-(4-p-fluorobenzoylpiperidinyl)propyl]phenothiazineFumarate] were, in that order, 1.44 mg/kg, 3.5 mg/kg, 1.4 mg/kg, 1.89 mg/kg and 317 mg/kg.
Take `CC(=O)c1ccc2c(c1)N(CCCN1CCC(C(=O)c3ccc(F)cc3)CC1)c1ccccc1S2` [Example 6, 2-Acetyl-10-[3-(4-p-fluorobenzoylpiperidiny)propyl] phenothiazine Difumarate Sesquihydrate]: the ED50 in data set [1] (setting [3]) stood at 0.14 mg/kg; in data set [1] (setting [4]), 0.1 mg/kg; in data set [1] (setting [5]), 0.06 mg/kg; in data set [1] (setting [6]), 0.76 mg/kg. Besides, the LD50 at 72 h in data set [2] was 287 mg/kg.
Turning to `O=C(c1ccc(F)cc1)C1CCN(CCCN2c3ccccc3Sc3ccc(Cl)cc32)CC1` [Example 7, 2-Chloro-10-[3-(4-p-fluorobenzoylpiperidinyl)propyl] phenothiazine Hydrochloride Hydrate (1:4)], the ED50 in data set [1] (ip, running text: administered I.P. in mice, after 16 hours, read-out: ED50) worked out at 0.72 mg/kg; in data set [1] (setting [3]), 0.17 mg/kg; in data set [1] (setting [4]), 0.53 mg/kg; in data set [1] (setting [5]), 0.19 mg/kg; in data set [1] (setting [6]) it was 0.72 mg/kg. The median lethal dose (LD50) at 72 h in data set [2] stood at 248 mg/kg.
